This note sets out measurements from paper PMC5990611, “An in Vitro Assay of hERG K^+ Channel Potency for a New EGFR Inhibitor FHND004” (Frontiers in Pharmacology, 2018).

The nature of the data set: In vivo pharmacokinetic assay in male SD rats. To be noted: rat, serum, data not shown, read-out: maximum serum concentration (Cmax).

As to `C=CC(=O)Nc1cc(Nc2nccc(-c3cn(C)c4ccccc34)n2)c(OC)cc1N(C)CCN(C)C` [AZD9291], the Cmax is 220 nM.
